Reference: US10995068B2, “Synthetic sphingolipid-like molecules, drugs, methods of their synthesis and methods of treatment” (The Regents of the University of California, priority 2015, dated 2021)

Key:
S1P receptor 2 = target: T1, S1P receptor 2 (Homo sapiens, UniProt O95136); assay: S1P receptor activation in CHO cells, S1P2; assay type: cell-based; details: CHO cells over-expressing human S1P2
T1 construct: expressed in transfected cells
Procedure, shortened: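 CHO cells stably overexpressing each human S1P receptor subtype, serum-starved 24 h, then stimulated 10 min in serum-free DMEM with 0.1 mg/ml fatty-acid-free BSA ± compounds or S1P. Lysates analysed by Western blot for phospho-Thr202/Tyr204-p42/p44-MAPK and phospho-Ser PKC substrate, normalised to total p42/p44.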

[1] = tested on: fusion of LC3-positive autophagosomes with LAMP1-positive lysosomes; assay: Autophagosome-lysosome fusion in chloroquine-treated cells; assay type: cell-based
Protocol: It is known in the art that cells adapt to nutrient stress by increasing autophagic flux. However, autophagosome-lysosome fusion reactions depend upon […] release via TRPML1 channels that are activated by PI(3,5)P2. […] Chloroquine (CQ) is molecule that stabilizes the transient autophagosomes. Cells were treated with CG to stabilize autophagolysosomes and subsequently treated with FTY720, SH-BC-893, or YM201636. […] Phosphatidylinositol 5-Phosphate (PI(5)P) is essential for autophagosome biogenesis upon glucose depletion. PI(5)P is produced by dephosphorylating PI(3,5)P2, and thus PI(5)P might also be mis-localized in SH-BC-893-treated cells, and thus also contributing to the disruption of autophagosome formation. […] Thus, SH-BC-893 inhibited both autophagosome formation and degradation. As a control, Vac14 over-expression limited vacuolation (FIGS. 55F, 61F, and 62B) and rescued autophagic flux in SH-BC-893-treated cells (FIGS. 61A, 61B, 61D and 61E).
Light Microscopy: Brightfield and epifluorescence microscopy were conducted using a Nikon TE2000-S fluorescence microscope; confocal microscopy was performed on a Zeiss LSM780 confocal microscope or Nikon Eclipse Ti spinning disk confocal microscope. […] Co-localization was determined using JACoP plugin in ImageJ software. Macropinocytosis was measured after 16 h incubation in serum-free DMEM. p53−/−; LSL-K-RasG12D MEFs before (LSL) or after (KRasG12D) introduction of Cre were serum starved for 16 h and then treated with macropinocytosis inhibitor 5-(N-ethyl-N-isopropyl) amiloride (EIPA, 75 μM) for 1 h or SH-BC-893 for 6 h. Oregon Green dextran (Life Technologies, cat #D7173) (1 mg/mL) and Lysotracker Red (Life Technologies, cat #L-7525) (1:2,000 dilution) were added for 30 min and live cells were evaluated on the spinning disc confocal microscope. […]

T1 sequence (O95136 whole entry): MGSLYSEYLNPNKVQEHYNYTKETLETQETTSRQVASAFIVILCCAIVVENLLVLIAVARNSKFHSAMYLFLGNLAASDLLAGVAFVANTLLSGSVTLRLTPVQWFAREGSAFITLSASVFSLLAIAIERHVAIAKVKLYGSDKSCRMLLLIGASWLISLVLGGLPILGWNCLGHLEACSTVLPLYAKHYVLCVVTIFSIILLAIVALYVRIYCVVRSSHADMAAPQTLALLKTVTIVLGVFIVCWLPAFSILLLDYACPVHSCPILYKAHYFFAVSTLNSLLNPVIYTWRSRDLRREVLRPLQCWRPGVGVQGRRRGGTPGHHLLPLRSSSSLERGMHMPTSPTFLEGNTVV

## CCCCCCCCc1ccc([C@H]2CCN[C@@H]2CO)cc1.Cl [Compound 5, (2S,3R)-2-(hydroxymethyl)-3-(4-octylphenyl)Pyrrolidinium chloride]
S1P receptor 2
  activation of S1P receptor 2: failed to activate
[1]
  fusion of LC3-positive autophagosomes with LAMP1-positive lysosomes: reduced fusion

## CCCCCCCCc1ccc([C@@H]2CCN[C@H]2CO)cc1.Cl [Compound 6]
S1P receptor 2
  activation of S1P receptor 2: failed to activate

## CCCCCCCCc1ccc(CCC(N)(CO)CO)cc1.Cl [FTY720, 2-Amino-2-[2-(4-octylphenyl)ethyl]propane 1,3-diol hydrochloride, reference compound]
[1]
  fusion of LC3-positive autophagosomes with LAMP1-positive lysosomes: reduced fusion
